Measurements: patent US20060223782A1, “2-Methylene-19-nor-(23S)-25-dehydro-1alpha-hydroxyvitamin D3-26,23-lactone and 2-methylene-19-nor-(23R)-25-dehydro-1alpha-hydroxyvitamin D3-26,23-lactone” (Wisconsin Alumni Research Foundation, priority 2005, published 2006)

Columns and labels:
Sprague-Dawley rats [1] = test: Bone calcium mobilization (serum calcium); type: in vivo, rat; conditions: four consecutive ip doses, even at 2,340 pmol/day, FIG. 6
Experimental: (§1) Male, weanling Sprague-Dawley rats were placed on Diet 11 (Suda et al. J. Nutr. 100:1049, 1970) (0.47% Ca) diet+vitamins AEK for one week followed by Diet 11 (0.02% Ca)+AEK for 3 weeks. The rats were then switched to a diet containing 0.47% Ca for one week followed by two weeks on a diet containing 0.02% Ca. Dose administration began during the last week on 0.02% calcium diet. Four consecutive ip doses were given approximately 24 hours apart. Twenty-four hours after the last dose, blood was collected from the severed neck and the concentration of serum calcium determined as a measure of bone calcium mobilization. The first 10 cm of the intestine was also collected for intestinal calcium transport analysis using the everted gut sac method. Antagonism was tested by administering a combination of 1,25(OH)2D3 and the compound to the animal simultaneously.

Sprague-Dawley rats [2] = test: Intestinal calcium transport (everted gut sac method); type: in vivo, rat; conditions: four consecutive ip doses, FIG. 7
Experimental: as §1

HL-60 cells = test: HL-60 differentiation (nitro blue tetrazolium reduction); type: cell-based, human; conditions: FIG. 2
Experimental: The study drugs were dissolved in ethanol and the concentrations determined using UV spectrophotometry. Serial dilutions were prepared so that a range of drug concentrations could be tested without changing the final concentration of ethanol (≦0.2%) present in the cell cultures.
Human promyelocyiic leukemia (HL60) cells were grown in RPMI-1640 medium containing 10% fetal bovine serum. The cells were incubated at 37° C. in the presence of 5% CO2.
HL60 cells were plated at 1.2×10^5 cells/mL. Eighteen hours after plating, cells in duplicate were treated with drug. Four days later, the cells were harvested and a nitro blue tetrazolium reduction assay was performed (Collins et al., 1979; J. Exp. Med. 149:969-974). The percentage of differentiated cells was determined by counting a total of 200 cells and recording the number that contained intracellular black-blue formazan deposits. Verification of differentiation to monocytic cells was determined by measuring phagocytic activity (data not shown).

[3] = system: 24-hydroxylase (24OHase) gene promoter in ROS 17/2.8 (bone) cells; test: In vitro transcription assay, antagonism of 1,25(OH)2D3 (24OHase promoter-luciferase); type: cell-based; conditions: combination with 1,25(OH)2D3 in the same well; FIGS. 3-5
Experimental: Transcription activity was measured in ROS 17/2.8 (bone) cells that were stably transfected with a 24-hydroxylase (24OHase) gene promoter upstream of a luciferase reporter gene (Arbour et al., 1998). Cells were given a range of doses. Sixteen hours after dosing the cells were harvested and luciferase activities were measured using a luminometer. RLU=relative luciferase units.
Antagonism was tested by adding a combination of 1,25(OH)2D3 and the compound in the same well keeping the final ethanol concentration the same.

[4] = target: T1, full-length recombinant rat vitamin D receptor (Rattus norvegicus, UniProt P13053); test: Vitamin D receptor competitive binding with [3H]-1,25-(OH)2-D3; conditions: competition with [3H]-1,25-(OH)2-D3; FIG. 1
T1 construct: Full-length recombinant rat vitamin D receptor was expressed in E. coli; histidine tag (C); made in house; host or cells: E. coli BL21(DE3) Codon Plus RIL
T1 sequence (P13053 1-423): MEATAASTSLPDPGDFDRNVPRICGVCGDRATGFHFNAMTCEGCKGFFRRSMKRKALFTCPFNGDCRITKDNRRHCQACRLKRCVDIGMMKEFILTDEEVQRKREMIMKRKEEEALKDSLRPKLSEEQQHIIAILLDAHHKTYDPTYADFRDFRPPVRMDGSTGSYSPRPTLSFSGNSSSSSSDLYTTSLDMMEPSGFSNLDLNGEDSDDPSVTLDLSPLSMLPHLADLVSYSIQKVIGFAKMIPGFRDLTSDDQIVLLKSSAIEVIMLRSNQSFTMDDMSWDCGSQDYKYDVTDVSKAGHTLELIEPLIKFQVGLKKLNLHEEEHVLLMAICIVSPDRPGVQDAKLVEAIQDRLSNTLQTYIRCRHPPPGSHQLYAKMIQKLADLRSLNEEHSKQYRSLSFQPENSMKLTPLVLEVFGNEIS
Experimental: The first system was a nickel affinity resin that utilizes the C-terminal histidine tag on this protein. The protein that was eluted from this resin was further purified using ion exchange chromatography (S-Sepharose Fast Flow). Aliquots of the purified protein were quick frozen in liquid nitrogen and stored at −80° C. until use. For use in binding assays, the protein was diluted in TEDK50 (50 mM Tris, 1.5 mM EDTA, pH 7.4, 5 mM DTT, 150 mM KCl) with 0.1% Chaps detergent. The receptor protein and ligand concentration was optimized such that no more than 20% of the added radiolabeled ligand was bound to the receptor.
Radiolabeled and unlabeled ligands were added to 100 mcl of the diluted protein at a final ethanol concentration of ≦10%, mixed and incubated overnight on ice to reach binding equilibrium. The following day, 100 mcl of hydroxylapatite slurry (50%) was added to each tube and mixed at 10-minute intervals for 30 minutes. The hydroxylapaptite was collected by centrifugation and then washed three times with Tris-EDTA buffer (50 mM Tris, 1.5 mM EDTA, pH 7.4) containing 0.5% Titron X-100. After the final wash, the pellets were transferred to scintillation vials containing 4 mL of Biosafe II scintillation cocktail, mixed and placed in a scintillation counter. Total binding was determined from the tubes containing only radiolabeled ligand.

Compound | calcemic activity measured by bone calcium mobilization (Sprague-Dawley rats [1]) | intestinal calcium transport (Sprague-Dawley rats [2]) | activity in inducing differentiation of HL-60 cells relative to 1,25-(OH)2D3 (HL-60 cells) | antagonistic activity when administered along with 1α,25-dihydroxyvitamin D3 (transcription) [3] | binding to the vitamin D receptor relative to 1α,25-dihydroxyvitamin D3 [4]
C=C1C[C@@H](C[C@@H](C)C2CC[C@H]3/C(=C/C=C4C[C@@H](O)C(=C)[C@H](O)C4)CCC[C@]23C)OC1=O (stereo partly drawn) [GC-3, 2-methylene-19-nor-(23R)-25-dehydro-1α-hydroxyvitamin D3-26,23-lactone] | no calcemic activity | retain the ability to elevate intestinal calcium transport | less activity than 1,25-(OH)2D3 | shows antagonistic activity | less active
C=C1C[C@H](C[C@@H](C)C2CC[C@H]3/C(=C/C=C4C[C@@H](O)C(=C)[C@H](O)C4)CCC[C@]23C)OC1=O (stereo partly drawn) [HLV, 2-methylene-19-nor-(23S)-25-dehydro-1α-hydroxyvitamin D3-26,23-lactone] | no calcemic activity | retain the ability to elevate intestinal calcium transport | less activity than 1,25-(OH)2D3 | antagonistic activity to an even greater extent | less active
